Read-outs that look alike come from different tables or passages of the source.

Data set [1] relates to G. mellonella larvae. The following applies: in vivo. Here is the method: The larvae were used within two weeks of arrival. […] Larvae in a weight range between 0.2-0.3 g and light cream in colour were selected for experiments. […] The injection was performed into the right foreleg.
Using the “bath” method, different lengths of time for decontamination were tested. Using sterile tweezers each larvae was rolled in 20 ml of 50% ethanol for 10 s, 20 s, 30 s or 60 s, patted dry with blue roll and dipped in sterile PBS. The PBS was plated on LB agar; plates and G. mellonella larvae were incubated at 37° C. for 24 h. The health of larvae was monitored and contaminants on the plates counted.
Further concentrations and decontamination treatment periods were studied. In each case, ten Galleria larvae were used, placed into a sterile mesh tray and immersed using the “dip” method into isopropyl alcohol, methanol or ethanol, prepared to varying concentrations by dilution with sterile water as described above. The treatment conditions were:
These contaminants can be introduced into the larva haemolymph through the injection point when challenging larvae. We believe that the deaths we have seen in past experiments in control groups challenged with PBS was a consequence of the introduction of this microbial flora into the body cavity of the larvae. Deaths in control groups can make the interpretation of results from test groups difficult. Therefore, the plan in this study was to identify a way of surface decontaminating the larvae, so that deaths in control groups were avoided, and therefore improving the quality of the data obtained from experiments using G. mellonella larvae. Galleria larvae are scored as dead when there is no movement when gently probed with a pipette tip. Colour is also an indicator of a response to infection or injury as such larvae produce melanin which creates a colour change of cream to pale or dark brown (4).

For data set [2], the system named is culturable microorganisms on the surface of G. mellonella larvae. As to the kind of experiment: Measurement of surface contamination of larvae after alcohol decontamination (PBS wash plated on LB agar). In kind it is cell-based. The following applies: for percentage reduction in surface contaminants compared to control: n=10 (FIG. 1). Here is the method:
Individual G. mellonella larva from groups of 10 were immersed thrice into 1 ml of PBS using sterilised forceps. The PBS wash was serially diluted, plated onto Luria Broth (LB) agar and incubated at 37° C. for 24 h. Any colonies of organisms visible after this period were counted. They may optionally be identified to species level, for example by use of 16S RNA sequencing. Ethanol was diluted with sterile water to 70% or 50% (v/v). We tested two different decontamination techniques. […] To assess the microbial flora after decontamination, we used the PBS washing method outlined above. Using the “bath” method, different lengths of time for decontamination were tested. […] The PBS was plated on LB agar; plates and G. mellonella larvae were incubated at 37° C. for 24 h. The health of larvae was monitored and contaminants on the plates counted. Further concentrations and decontamination treatment periods were studied. In each case, ten Galleria larvae were used, placed into a sterile mesh tray and immersed using the “dip” method into isopropyl alcohol, methanol or ethanol, prepared to varying concentrations by dilution with sterile water as described above. The treatment conditions were: Larvae were patted dry on paper towel and grasped with sterile forceps dip larvae individually into PBS three times, for measurement of surface contamination as described above.

For data set [3], the system named is G. mellonella larvae. The following applies: single 20 s bath exposure to 50% (v/v), 24 hours.
Protocol: Final instar G. mellonella larvae were obtained from Live Foods UK and kept on woodchip at 15° C. until use. The larvae were used within two weeks of arrival. The Galleria larvae were screened for colour, weight and size before use. Larvae in a weight range between 0.2-0.3 g and light cream in colour were selected for experiments. Injections were carried out using a Hamilton syringe with 5 μl dispenser; 10 μl of inoculum was used per larva in each injection. The injection was performed into the right foreleg. Phosphate Buffer Saline (PBS, pH 7.2) was used as a control inoculum as it should not kill or harm the larvae.
We injected larvae with PBS before or after decontamination. […] For the second group, only 10 μl PBS was injected into the right foreleg, with no preliminary decontamination. All larvae were placed into an incubator at 37° C. for 24 h and monitored for health and survival.
Finally, we investigated whether decontamination of the larvae improved the survival of larvae which were subsequently injected with PBS. […] These larvae were dried and then injected 10 μl PBS into the right foreleg. The larvae were placed at 37° C. and survival recorded over the next 24 hours.

For `CCO` [Ethanol, ethanol], the “larval survival 24 hrs” value was 10/10 in the data set on G. mellonella larvae [1] (Galleria mellonella, 40 %); 10/10 in the data set with G. mellonella larvae [1] (Galleria mellonella, 50 %); 10/10 with G. mellonella larvae [1] (Galleria mellonella, 60 %). Moreover, the “larval survival 48 hrs” value is listed as 10/10 in the data set on G. mellonella larvae [1] (Galleria mellonella, 48 h, 40 %) and 10/10 in the data set on G. mellonella larvae [1] (Galleria mellonella, 48 h, 50 %). Moreover, the “Observations at 48 h (death)” value in the data set with G. mellonella larvae [1] (Galleria mellonella, 48 h, 50 % (v/v)) amounted to 15% death. Besides, the “larval survival 72 hrs” value in the data set with G. mellonella larvae [1] (Galleria mellonella, 40 %) is reported as 10/10; in the data set with G. mellonella larvae [1] (Galleria mellonella, 50 %), 10/10. Also, the “Observations at 48 h” value with G. mellonella larvae [1] is “No death or pigment change”. Moreover, the “% reduction in microbial surface contamination” value (“% reduction” for short) in data set [2] (40%, 20 s immersion (dip)) was determined as 95.7%; in data set [2] (40%, 40 s immersion (dip)), 99.2%; in data set [2] (50%, 20 s immersion (dip)), 99.0%; in data set [2] (50%, 40 s immersion (dip)) it was 98.9%; in data set [2] (50%, 50 s immersion (dip)), 99.4%; in data set [2] (60%, 20 s immersion (dip)), 98.4%. Further, the “% reduction” value in data set [2] (60%, 40 s immersion (dip)) is recorded as 99.1%. In addition, the “percentage reduction in surface contaminants compared to control” value was 99.99% in data set [2] (50% ethanol, bath technique); 99.99% in data set [2] (50% ethanol, dip technique); 99.98% in data set [2] (70% ethanol, bath technique); 99.52% in data set [2] (70% ethanol, dip technique). The “groups of larvae with 100% survival after PBS injection” value with G. mellonella larvae [3] (10 μl PBS into right foreleg, 37° C., groups of 10) was 19/20. The “reduction in deaths versus un-decontaminated larvae injected with PBS” value in the data set on G. mellonella larvae [3] (PBS injection) was found to be 83%.

Turning to `CC(C)O` [Isopropyl alcohol, isopropanol], the “% reduction” value in data set [2] (50%, 20 s immersion (dip)) is 99.9%; in data set [2] (50%, 40 s immersion (dip)), 99.9%; in data set [2] (70%, 20 s immersion (dip)), 99.9%; in data set [2] (70%, 40 s immersion (dip)), 99.8%.

Regarding `CO` [Methanol, methanol], the “% reduction” value is on record as 99.0% in data set [2] (50%, 20 s immersion (dip)); 99.7% in data set [2] (50%, 40 s immersion (dip)); 99.9% in data set [2] (70%, 20 s immersion (dip)); 99.9% in data set [2] (70%, 40 s immersion (dip)).

The values above are taken from patent US10683121B2, “Method for preparation of research organisms” (BIOSYSTEMS TECHNOLOGY LIMITED, priority 2015, dated 2020).
